Measured values taken from patent US20040039211A1, “Tetrapyrroles” (DUKE UNIVERSITY AND NATIONAL JEWISH MEDICAL AND RESEARCH …, priority 2000, published 2004).

Assays:
[1] = tested on: rat brain homogenates; assay: Lipid peroxidation of rat brain homogenates by iron/ascorbate (TBARS); type: biochemical; conditions: concentration that reduced lipid peroxidation by one-half
Procedure: The ability of mimetics to inhibit lipid peroxidation can be assessed as described by Day et al, Free Rad. Biol. Med. 26:730 (1990). Iron and ascorbate can be used to initiate lipid peroxidation in tissue homogenates and the formation of thiobarbituric acid reactive species (T BARS) measured.
(§1) Two metallotetrapyrroles were tested for antioxidant activity, in vitro. In particular, the compounds were assayed for their ability to dismutate superoxide in the indirect method that utilizes xanthine and xanthine oxidase to generate superoxide and cytochrome c reduction as indicator of superoxide flux. […] The compounds were also assayed for their ability to prevent lipid peroxidation of rat brain homogenates by iron and ascorbate. The mixture of iron and ascorbate generates reactive oxygen species that oxidize biological lipids and these oxidized lipids can be detected as species that react with thiobarbituric acid (TBARS). Both compounds could inhibit the formation of TBARS and this ability correlated with their superoxide dismutase (SOD) activity (Table 5).
b) Lipid peroxidation was initiated in rat brain homogenates with iron/ascorbate and the IC50 is the concentration of compound that reduced lipid peroxidation by one-half.

[2] = SOD activity, xanthine oxidase/cytochrome c method; type: biochemical; conditions: for kcat, O2^− dismutation: competition with 10 μM cytochrome c, pH 7.8, 25° C.
Procedure: FIG. 12. […] The v0 is the rate of reduction of 10 μM cytochrome c by O2. The vi is the rate of reduction of cytochome c inhibited by the porphyrin catalyst in the presence of 0.1 mM EDTA in 0.05 M tris buffer at pH 7.8. 40 μM xanthine. ˜2 nM xanthine oxidase at 25° C. The total volume of the assay solution is 3 mL.
SOD Activity. Catalysis of the dismutating of O2 in vitro was followed by the xanthine oxidase/cytochrome c method (McCord et al, J. Biol. Chem. 244:6049 (1969)).
Dismutation of superoxide anion, O2^−. Assays were conducted in 0.05 M aqueous phosphate buffer, pH 7.8, 0.1 mM EDTA, ±15 μg/mL of catalase, ±albumin. Rate constants for the reaction with O2^−were based upon the competition of the compounds with cytochrome c.
as §1, with “(TBARS).” for “(TBARS). Both compounds could inhibit the formation of TBARS and this ability correlated with their superoxide dismutase (SOD) activity (Table 5).”
a) SOD activity determined using a xanthine oxidase/cytochrome c assay

[3] = Hydrolysis / dissociation of the complex in methanol/aqueous or water solution; type: physicochemical
Procedure: Uv/vis Spectroscopy. […] Also the effects of EDTA, H2O2, and the methanol/water ratio on the stability of the manganese(III) complex were examined. […] […] 79:699 (1960)). When needed the biliverdin and biliverdin dimethylester as well as their reduced forms bilirubin and bilirubin dimethylester were studied. […] In a week, at 25° C., only 14% of the complex dissociated. When the water content was increased to 43%, half the complex dissociated in a week.

Manganese(III) Biliverdin IX Dimethylester [{Mn^IIIBVDME}2]
IC50 [1]: 0.3 µM
specific activity (SOD mimetic) [2]: 10,700 units/mg
effect of albumin on SOD-like activity ([2]; 1:1 albumin to compound ratio): no negative effect of albumin was observed
decrease of SOD-like activity in the presence of albumin ([2]; albumin to compound ratio 3): 50%
SOD specific activity ([2]; per manganese, 1 unit = quantity (mg) per 3.0 mL causing 50% inhibition of reduction of 10 μM cytochrome c): 10700 U/mg
kcat, O2^− dismutation ([2]; per manganese): 5.5e+07 M⁻¹ s⁻¹
kcat, O2^− dismutation ([2]; per manganese, listed as compound of FIG. 2C): 5.5e+07 M⁻¹ s⁻¹
kcat, O2^− dismutation ([2]; per manganese, listed as ½ {Mn^III/IVBVDME^0/−}2): 5.5e+07 M⁻¹ s⁻¹
SOD Activity ([2]; xanthine oxidase/cytochrome c assay): 10,700 USOD/mg
fraction of complex dissociated (hydrolysis) ([3]; 90/10 methanol/aqueous, pH* 7.9, one week, 25° C.): 14%
fraction of complex dissociated (hydrolysis) ([3]; water content 43%, one week): half
